In US9546150B2, “Substituted quinazolin-4-ones for inhibiting ubiquitin specific protease 7” (HYBRIGENICS SA, priority 2011, dated 2017):
Values belong to the molecule of their own block, whether it stands above or below them.

Columns and labels:
Assay type in all cases: biochemical
[1] = biological target: T1, USP7 (Homo sapiens, UniProt Q93009); test: Time-dependent pre-incubation experiment with USP7, Ub-AMC; set-up: Full-length wild-type human USP7 and its catalytic mutant; His tag (pFastBac-HT vector) (N); made in house; host or cells: Spodoptera frugiperda Sf9 (or High Five) insect cells, baculovirus
T1 sequence (Q93009 whole entry): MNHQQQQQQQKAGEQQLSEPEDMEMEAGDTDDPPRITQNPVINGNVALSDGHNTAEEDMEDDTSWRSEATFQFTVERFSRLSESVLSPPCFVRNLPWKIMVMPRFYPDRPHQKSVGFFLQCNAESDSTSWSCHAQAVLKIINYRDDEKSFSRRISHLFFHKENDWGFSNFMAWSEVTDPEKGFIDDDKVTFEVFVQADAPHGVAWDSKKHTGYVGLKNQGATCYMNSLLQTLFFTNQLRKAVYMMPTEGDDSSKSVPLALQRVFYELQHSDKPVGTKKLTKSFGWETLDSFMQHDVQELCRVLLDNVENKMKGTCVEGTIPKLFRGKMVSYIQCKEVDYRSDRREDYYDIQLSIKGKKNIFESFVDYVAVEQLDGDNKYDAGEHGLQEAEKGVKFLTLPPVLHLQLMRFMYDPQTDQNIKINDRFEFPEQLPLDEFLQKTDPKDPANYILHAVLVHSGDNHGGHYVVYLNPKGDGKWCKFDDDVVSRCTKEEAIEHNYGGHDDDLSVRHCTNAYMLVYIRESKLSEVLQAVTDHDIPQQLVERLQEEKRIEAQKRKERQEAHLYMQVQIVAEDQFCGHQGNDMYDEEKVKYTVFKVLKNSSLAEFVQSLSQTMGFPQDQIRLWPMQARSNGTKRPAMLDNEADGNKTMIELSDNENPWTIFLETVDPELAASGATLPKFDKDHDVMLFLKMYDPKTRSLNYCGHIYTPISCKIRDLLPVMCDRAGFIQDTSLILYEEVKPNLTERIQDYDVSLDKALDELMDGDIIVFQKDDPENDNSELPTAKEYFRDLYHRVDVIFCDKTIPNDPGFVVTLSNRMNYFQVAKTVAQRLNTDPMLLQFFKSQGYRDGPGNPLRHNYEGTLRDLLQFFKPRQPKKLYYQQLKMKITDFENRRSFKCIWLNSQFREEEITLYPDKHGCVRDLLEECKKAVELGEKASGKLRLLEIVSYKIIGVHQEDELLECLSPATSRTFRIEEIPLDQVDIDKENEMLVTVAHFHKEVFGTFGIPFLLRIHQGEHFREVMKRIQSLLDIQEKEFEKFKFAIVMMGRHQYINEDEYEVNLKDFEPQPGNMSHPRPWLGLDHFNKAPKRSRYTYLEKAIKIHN
Procedure: To better understand the mechanism of inhibition of USP7 by our USP7-specific compounds, several experiments were performed. […] […].

[2] = biological target: T1, USP7; test: Reversibility of USP7 inhibition after G50 gel filtration; set-up: Full-length wild-type human USP7 and its catalytic mutant; His tag (pFastBac-HT vector) (N); made in house; host or cells: Spodoptera frugiperda Sf9 (or High Five) insect cells, baculovirus; details: 100 μM, 4 h at room temperature, USP7 100 pM
Procedure: The reversibility of inhibition was next determined by measuring the recovery of enzymatic activity after gel filtration. […] We passed some of each sample through a G50 gel filtration system (Sephadex, G50 superfine, Sigma Aldricht). The deubiquitinating activity of the G50 eluates was assessed with the Ub-AMC substrate, as described above, and compared with that of samples not subjected to G50 filtration. The reactions were monitored using the PHERAstar (BMG Labtech).

[3] = biological target: T2, USP8 (Homo sapiens, UniProt P40818); test: HAUbVS competition assay in HEK293 cell lysates, USP8; set-up: His tag (pFastBac-HT vector); made in house; details: 12.5-200 μM
T2 sequence (P40818 1-1118): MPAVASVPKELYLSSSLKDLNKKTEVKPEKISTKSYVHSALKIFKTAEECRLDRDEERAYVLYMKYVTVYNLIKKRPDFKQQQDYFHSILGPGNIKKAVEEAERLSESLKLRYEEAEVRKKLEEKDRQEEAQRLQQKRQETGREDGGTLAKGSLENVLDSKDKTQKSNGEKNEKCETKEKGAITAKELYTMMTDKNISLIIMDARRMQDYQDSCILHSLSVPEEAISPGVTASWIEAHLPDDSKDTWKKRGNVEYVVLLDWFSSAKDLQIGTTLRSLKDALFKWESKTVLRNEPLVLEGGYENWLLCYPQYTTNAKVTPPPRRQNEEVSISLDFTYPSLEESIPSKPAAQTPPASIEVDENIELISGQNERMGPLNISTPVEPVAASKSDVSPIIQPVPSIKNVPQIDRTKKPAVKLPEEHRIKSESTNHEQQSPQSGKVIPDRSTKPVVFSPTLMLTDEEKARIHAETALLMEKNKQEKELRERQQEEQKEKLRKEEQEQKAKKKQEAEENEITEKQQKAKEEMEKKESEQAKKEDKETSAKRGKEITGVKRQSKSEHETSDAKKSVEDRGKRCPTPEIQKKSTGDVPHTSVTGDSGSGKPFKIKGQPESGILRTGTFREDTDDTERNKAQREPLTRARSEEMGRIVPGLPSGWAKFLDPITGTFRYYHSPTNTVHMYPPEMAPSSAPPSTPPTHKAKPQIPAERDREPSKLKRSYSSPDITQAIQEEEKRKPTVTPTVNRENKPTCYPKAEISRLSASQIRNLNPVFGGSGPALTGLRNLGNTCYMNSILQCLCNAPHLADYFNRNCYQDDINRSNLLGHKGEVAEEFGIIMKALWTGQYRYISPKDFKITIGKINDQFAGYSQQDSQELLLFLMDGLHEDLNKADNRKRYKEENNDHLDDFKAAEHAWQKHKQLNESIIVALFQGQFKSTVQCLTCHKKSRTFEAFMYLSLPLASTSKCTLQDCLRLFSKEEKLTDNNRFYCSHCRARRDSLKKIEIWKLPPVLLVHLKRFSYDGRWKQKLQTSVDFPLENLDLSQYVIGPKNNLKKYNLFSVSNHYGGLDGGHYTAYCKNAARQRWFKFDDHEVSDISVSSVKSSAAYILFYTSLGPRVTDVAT
Procedure: The HA-Ub-VS probe (Hemagglutin tag-Ubiquitin-Vinyl Sulfone) was used in this study to directly visualize the activity of all deubiquitinating enzymes from native proteomes.
HEK293 cells were harvested and lysed on ice with a non denaturating buffer containing Tris pH7.4, 50 mM; NaCl, 150 mM; MgCl2, 5 mM; EDTA, 0.5 mM; DTT, 2 mM; ATP (adenosine triphosphate), 2 mM; NP40 (nonyl phenoxypolyethoxylethanol), 0.5% and glycerol, 10%. Samples were incubated at 4° C. for 1 hour and clarified. Proteins were then quantified by Bradford method (Bio-Rad Protein Assay). […] The ubiquitin labeling reaction was initiated by the addition of HA-Ub-VS (8 μg/ml) in labeling buffer (Tris pH7.6, 50 mM; MgCl2, 5 mM; EDTA, 0.5 mM; DTT, 2 mM; ATP, 2 mM; sucrose, 250 mM) and incubated at room temperature for 15 min. Samples were next heated at 100° C. for 10 minutes and briefly sonicated. They were resolved by SDS-polyacrylamide gel electrophoresis (SDS-PAGE), transferred to a nitrocellulose membrane and probed with antibodies against USP7, HA, UCH-L3, CYLD, USP8, USP5, USP10 and Stat3. […] Signals were detected by enhanced chemiluminescence (ECL; Amersham) according to the reagent manufacturer's instructions.

time dependence of USP7 inhibition ([1]; 100 μM, pre-incubation 30 min, 1 h, 2 h, 4 h, 6 h): not a time-dependent inhibitor | inhibition at 100 µM ([1]; USP7 100 pM, pre-incubation 30 min to 6 h, Ub-AMC): ~75%
Compound: O=C(CCc1ccccc1)N1CCC(O)(Cn2cnc3cc(Cl)ccc3c2=O)CC1 [Example 2, 7-chloro-3-{[4-hydroxy-1-(3-phenylpropanoyl)piperidin-4-yl]methyl}-3,4-dihydroquinazolin-4-one]

recovery of USP7 activity after G50 gel filtration [2]: total restoration of USP7 activity
Compound: O=C(CCC1CCCC1)N1CCC(O)(Cn2cnc3ccccc3c2=O)CC1 [Example 3, 3-{[1-(3-cyclopentylpropanoyl)-4-hydroxypiperidin-4-yl]methyl}-3,4-dihydroquinazolin-4-one]

blocking of HAUbVS labeling of USP8 [3]: without any cross-reaction
Compound: CC(Cc1cccs1)C(=O)N1CCC(O)(Cn2cnc3ccccc3c2=O)CC1 (stereo not shown) [Example 5, 3-({4-hydroxy-1-[2-methyl-3-(thiophen-2-yl)propanoyl]piperidin-4-yl}methyl)-3,4-dihydroquinazolin-4-one]
